# Measurements published in patent US20070015827A1, “Methods and compositions for treating ophthalmic conditions via serum retinol, serum retinol binding protein (RBP), and/or serum retinol-RBP modulation” (Sytera, Inc., priority 2005, published 2007).
# “Also recorded” adds a separate entry of the source.
# Legend:
# abca4 null mutant mice = assay: Serum retinol after 28 days of daily HPR (LC/MS, HPLC); format: in vivo, mouse; details: for effect on serum retinol (in words): ABCA4 null mice
# Procedure: ABCA4 null mutant mice were given the indicated dose of HPR in DMSO (i.p.) daily for 28 days (n=4 mice per dosage group). At the end of the study period, blood samples were taken and serum was prepared. Following acetonitrile precipitation of serum proteins, the concentrations of retinol and HPR were determined from the soluble phase by LC/MS (see FIG. 7). Identity of the eluted compounds was confirmed by UV-vis absorption spectroscopy and co-elution of sample peaks with authentic standards.
# Analysis of Serum Retinol. Whole blood was collected from tail veins of HPR-treated mice 18 hrs. following the final HPR dose (i.e., at day 28). Serum was obtained from whole blood following centrifugation at 1,500×g, 10 min. Serum proteins were precipitated with the addition of an equivolume of ice-cold acetonitrile and centrifugation (10,000×g, 10 min). An aliquot was removed from the soluble phase and analyzed by HPLC using an Agilent 1100 series capillary liquid chromatograph equipped with a diode-array detector. Chromatography was performed on a Zorbax SB C18 5 μm column (150×0.5 mm) equilibrated with acetonitrile/water/glacial acetic acid (80:18:2, v/v) at a flow rate of 10 μl/min.
# abca4 −/− mice [1] = assay: HPR and retinaldehyde content after 7 days, dark- and light-adapted; format: in vivo, mouse; details: HPR 10 mg/kg/day
# Procedure: The effect of HPR on visual chromophore biosynthesis was examined in a separate study in which a […] of HPR (10 mg/kg/day) was administered to abca4 −/− mice over a 7-day period.
# [2] = in vivo; cited from earlier work
# abca4 −/− mice [3] = assay: A2E levels after withdrawal of chronic treatment; format: in vivo, mouse; details: chronic treatment (HPR 10 mg/kg i.p.) stopped after 28 days; measured 12, 28 and 42 days later
# Procedure: Latent Effects of HPR on Arresting A2E Accumulation —One feature identified during the HPR trials was a therapeutic latency effect following withdrawal of HPR. In these studies, chronic treatment of abca4 −/− mice (10 mg HPR/kg, i.p.) was stopped after 28 days. A2E levels were then measured 12, 28 and 42 days following the final HPR dose. […] This effect was not observed in animals treated with 13-cis retinoic acid, a result that may be due to the capacity of RPE cells to adapt to, and maintain, low steady-state retinoid levels. […] These findings indicate that high steady-state levels of competitive inhibitors such as 13-cis retinoic acid must be maintained for therapeutic efficacy.
# abcr null mutant mice = assay: Lipofuscin autofluorescence in RPE and light microscopy of retina; format: in vivo, mouse
# abca4 null mutant mouse = assay: Effect of HPR on serum retinol, 14 days (Example 11); format: in vivo
# Procedure: Initial studies began by examining the effect of HPR on serum retinol. Animals were divided into three groups and given either DMSO, 10 mg/kg HPR, or 20 mg/kg HPR for 14 days. At the end of the study period, blood was collected from the animals, sera were prepared and an acetonitrile extract of the serum was analyzed by reverse phase LC/MS. UV-visible spectral and mass/charge analyses were performed to confirm the identity of the eluted peaks. Sample chromatograms obtained from these analyses are shown: FIG. 1a.—extract from an abca4 null mutant mouse receiving HPR vehicle, DMSO; FIG. 1b.-10 mg/kg HPR; FIG. 1c.-20 mg/kg HPR. […] For 20 mg/kg HPR, serum retinol is decreased 72%, see FIG. 7. The steady state concentrations of retinol and HPR in serum (at 20 mg/kg HPR) were determined to be 2.11 μM and 1.75 μM, respectively.
# RBP = RBP (Homo sapiens, UniProt P02753); assay: Competition binding assay RBP-retinol/HPR by fluorescence quenching
# Source text: Based upon these findings, we sought to further explore the mechanism(s) of retinol reduction during HPR treatment. A tenable hypothesis is that HPR may displace retinol by competing at the retinol binding site on RBP. […] Therefore, one can measure displacement of retinol from the RBP holoprotein by observing decreases in both protein (340 nm) and retinol (470 nm) fluorescence. We performed a competition binding assay using RBP-retinol/HPR concentrations which were similar to those determined from the 14 day trial at 20 mg/kg HPR described above. […] In the control assays, decreases in retinol fluorescence were associated with concomitant increases in protein fluorescence, see FIG. 3a. This effect was determined to be due to temperature effects as the dissociation constant of RBP-retinol increases (decreased affinity) with […] at 37C. […] Increases of HPR beyond equimolar amounts relative to RBP holoprotein (e.g., 2.0 μM HPR to 1.0 μM RBP) will produce a population of RBP which is largely associated with HPR.
# [4] = molecular target: interaction of TTR with RBP (Homo sapiens, UniProt P02753); details: in vitro; cited from earlier work
# abca4 −/− mice [5] = assay: Steady-state retinoid levels and visual chromophore regeneration after 28 days of HPR; format: in vivo, mouse
# Procedure: (§1) Both steady-state retinoid levels and rates of visual chromophore regeneration were evaluated in abca4 −/− mice following a 28-day treatment period with 10 mg/kg HPR. Light-adapted levels of all visual cycle retinoids were reduced by ˜50% compared to control animals receiving only DMSO (FIG. 16A). Although HPR was present within RPE tissue (˜10 μM), the rate of rhodopsin regeneration (FIG. 16B) and removal of bleached photoproduct (Figure 16C) were not affected. The calculated time constant for regeneration of visual chromophore was nearly identical for both DMSO- and HPR-treated mice (0.37 h time constant to fully regenerate visual chromophore, FIG. 16D).
# (§2) Panels D-F of FIG. 9 are electrophysiological measurements of rod function (panel D), rod and cone function (panel E) and recovery from photobleaching (panel F).
# [6] = as above; format: in vivo, mouse; details: abca4 -/- (knockout line; background strain not stated), mouse, RPE tissue, intraperitoneal, HPR 10 mg/kg, read-out: HPR present within RPE tissue
# Procedure: as §1, §2
smiles,measurement,setting,value
"CC1=C(/C=C/C(C)=C/C=C/C(C)=C/C(=O)Nc2ccc(O)cc2)C(C)(C)CCC1 [HPR, N-(4-hydroxyphenyl)retinamide]",effect on serum retinol (in words),abca4 null mutant mice,profound reductions
same,effect on serum retinol (in words),abca4 null mutant mice; listed as Fenretinide,potently and reversibly reduces
same,effect on serum retinol (in words),abca4 null mutant mice; listed as fenretinide,lowered serum retinol levels
same,serum retinol reduction,"abca4 null mutant mice; HPR 2.5 mg/kg daily, 28 days",20%
same,reduction of RBP-retinol in the circulation,"abca4 null mutant mice; HPR 10 mg/kg daily, 28 days",~50%
same,effect on steady-state retinal levels or regeneration of visual chromophore,abca4 −/− mice [1],essentially no effect
same,effect on serum retinol and RBP,[2],reductions in serum retinol and RBP; also recorded: profound reductions
same,A2E levels after withdrawal (therapeutic latency effect),abca4 −/− mice [3],remained persistently low for several weeks
same,lipofuscin autofluorescence in the RPE,abcr null mutant mice; HPR daily for 28 days,significantly reduces; also recorded: less than that of an age-matched wild-type animal
same,retinal morphology (light microscopy),abcr null mutant mice; HPR-treated animals,no aberrant morphology
same,decrease of serum all-trans retinol,"abca4 null mutant mouse; 10 mg/kg HPR, 14 days, vs DMSO",40%
same,decrease of serum retinol,"abca4 null mutant mouse; 20 mg/kg HPR, 14 days, vs DMSO",72%
same,steady state concentration of retinol in serum,abca4 null mutant mouse; at 20 mg/kg HPR,2.11 µM
same,competitive binding of HPR to RBP,RBP,dose-dependent and saturable
same,displacement of retinol from RBP-retinol holoprotein,"RBP; physiological temperature (37C), protein (340 nm) and retinol (470 nm) fluorescence",efficiently displaces retinol
same,effect on interaction of TTR with RBP,[4],interferes with the normal interaction of TTR with RBP
same,removal of bleached photoproduct,abca4 −/− mice [5]; HPR 10 mg/kg,not affected
same,regeneration of visual chromophore (rate of rhodopsin regeneration),abca4 −/− mice [5]; HPR 10 mg/kg daily,not affected; also recorded: does not affect; also recorded: normal
same,calculated time constant to fully regenerate visual chromophore,"abca4 −/− mice [5]; HPR 10 mg/kg, nearly identical for DMSO",0.37 h
same,concentration at 28 days,[6],~10 µM
